Experimental data from ChEMBL document CHEMBL1133801, “Synthesis, characterisation and antiamoebic activity of new thiophene-2-carboxaldehyde thiosemicarbazone derivatives and their cyclooctadiene Ru(II) complexes” (Bioorg Med Chem Lett, 2001).
Converted amounts (≈) assume the structure as drawn.

The compounds below were run on Entamoeba histolytica (assay: In vitro antiamoebic activity was evaluated against HK-9 strain of Entamoeba histolytica).
Assay type: functional, organism-based
`S=C(N/N=C/c1cccs1)NC1CCCCCCC1` showed an IC50 of 0.5 µg/mL (≈ 1.69 µM).
`S=C(N/N=C/c1cccs1)NC1CCCCC1` was tested, and the IC50 was 0.56 µg/mL (≈ 2.09 µM).
`S=C(N/N=C/c1cccs1)NC1CCCC1` showed an IC50 of 0.64 µg/mL (≈ 2.53 µM).
With `S=C(N/N=C/c1cccs1)N1CCCCCC1` the IC50 was 0.7 µg/mL (≈ 2.62 µM).
For `Cc1ncc([N+](=O)[O-])n1CCO` [METRONIDAZOLE], the IC50 was 0.22 µg/mL (≈ 1.29 µM).
